For one compound, MIC80 results are on record in ChEMBL document CHEMBL1649348, “Antifungal cyclic peptides from Psammosilene tunicoides” (2010).

Common to all, as to type: functional
The subject of test [1] is Candida albicans. As to the kind of experiment: Antifungal activity against Candida albicans Y0109 after 24 hrs to 1 week by two fold dilution method.
The next test concerns Cryptococcus neoformans. In words: Antifungal activity against Cryptococcus neoformans BLS108 after 24 hrs to 1 week by two fold dilution method.
Test [2] relates to Candida albicans. In words: Antifungal activity against Candida albicans SC5314 after 24 hrs to 1 week by two fold dilution method.
Another test concerns Candida tropicalis. As to the kind of experiment: Antifungal activity against Candida tropicalis after 24 hrs to 1 week by two fold dilution method.
The subject of another test is Candida parapsilosis. As to the kind of experiment: Antifungal activity against Candida parapsilosis after 24 hrs to 1 week by two fold dilution method. Conditions: Lodderomyces parapsilosis.

In brackets after ≈: the same amount, converted by molar mass. Peptide text beside a SMILES is read from it.

Usually MIC80 stands for an inhibitory concentration at the 80% level, which refers to growth in some studies and to a panel of isolates in others. A higher MIC80 goes with lower susceptibility. As to `CC[C@H](C)[C@@H]1NC(=O)[C@H](CC(N)=O)NC(=O)[C@H](C(C)C)NC(=O)CNC(=O)[C@H](Cc2c[nH]cn2)NC(=O)[C@H](Cc2c[nH]c3ccccc23)NC(=O)[C@@H]2CCCN2C(=O)[C@@H]2CCCN2C1=O` [TUNICYCLIN D] (cyclo(GVNIPPWH)), the MIC80 against Candida albicans [1] turned out to be 16 mg/L (≈ 17.8 µM); against Cryptococcus neoformans, 1 mg/L (≈ 1.11 µM); in the test with Candida albicans [2], 4 mg/L (≈ 4.44 µM); against Candida tropicalis, 0.25 mg/L (≈ 0.277 µM); against Candida parapsilosis, 1 mg/L (≈ 1.11 µM).
